Measurements published in patent US7094869B2, “Low molecular weight peptidomimetic growth hormone secretagogues” (Genentech, Inc., priority 1994, dated 2006).
Non-standard residues stand in square brackets, D forms with d. Residues, ends and D or L forms follow the SMILES beside them. *: point of attachment. Tyr(3-I) = N[C@@H](Cc1ccc(O)c(I)c1)C(=O)O; dNMe2Nal = CN[C@H](Cc1ccc2ccccc2c1)C(=O)O; 2Nal = N[C@@H](Cc1ccc2ccccc2c1)C(=O)O; d2Nal = N[C@H](Cc1ccc2ccccc2c1)C(=O)O; Acetyl(4-pyridyl) = O=C(Cc1ccncc1)*; d(hPhe) = N[C@H](CCc1ccccc1)C(=O)O; dPhg = N[C@@H](C(=O)O)c1ccccc1; NHPhenethyl = c1ccc(CCN*)cc1; dNle = CCCC[C@@H](N)C(=O)O; dOrn = NCCC[C@@H](N)C(=O)O; Ac6c = NC1(C(=O)O)CCCCC1; Inp = O=C(O)C1CCNCC1; Ava = NCCCCC(=O)O

The molecules below were run against rat pituitary cells (Rattus norvegicus, UniProt O08725). Details: read-out: PIT Cell EC50; Table III, formula IV compounds; GH release, 15 min incubation.
Protocol: Pituitaries from ten rats were removed, the posterior pituitary discarded and the anterior pituitary placed in Hanks' Balanced Salt Solution (HBSS: without calcium chloride, w/o magnesium chloride, w/o magnesium sulfate; Gibco) containing 20 mM HEPES (Gibco) and 100 U/ml penicillin streptomycin (PS: JRH Biosciences). Under sterile conditions, pituitaries were rinsed twice then minced into small fragments with a razor blade. […] After the incubation, fragments were triturated to yield small clumps and single cells. The cells were centrifuged 1000× g for 5 min, resuspended, counted and plated at a final cell concentration of 100,000 cells/ml. Incubation media was DME low glucose media w/NaHCO3 (Gibco) containing 20 mM hepes, 100 U/ml PS and 10% FBS (Hyclone A-111-L). Cells were plated at 0.5 ml per well in 48 well plates (Falcon) and incubated at 37° C. in 5% C02 for three days. For challenges to determine release of other pituitary hormones cells were plated at 200,000 cells per ml with 2 ml per well of a Swell plate (Corning). Challenge: A (inip)bbFK-NH2 stock (or other GHRP) concentration of 1 mM was made in DMSO and diluted with warmed media approximately 30 min prior to use. The highest concentration of DMSO in media was 0.1%. Stock solutions (1 mM) of rat GHRH, somatostatin (Sigma) and GHRP antagonist HwkWfK were made fresh in media and diluted appropriately. The media used in all challenges and washing steps was DME low glucose with 20 mM Hepes, 100 U/ml PS, 10% FBS. Media was warmed to 37° C. and gassed by placing it into the incubator prior to challenge. On day three, the media was discarded and fresh media (approximately 1 ml) added for the first of three washes. After the last wash, the plate was placed back in the incubator for a 15 min pre-incubation. Then cells were washed 2× (with warmed and gassed media) and fresh 0.5 ml media were added for the second 15 min. pre-incubation. After the second pre-incubation cells were washed 2× as above and 0.5 ml of control and test solutions were added for a final 15 min incubation. After this incubation, the media were removed for subsequent GH ELISA. GH ELISA: A two-site ELISA was used to determine rat GH concentration in the media. […] After blocking and washing, standard (rat GH reference preparation: Parlow) and challenge media is diluted 1:20 prior to GH assay were added for a 1 hr room temperature incubation. STATISTICS: The mean for each group was determined and analyzed by one-way analysis of variance with a post-hoc Student-Newman-Keuls. Significance is defined as P<0.05. The EC50 was calculated using a 4-parameter curve-fit program (Kaleidagraph). Three to four independent EC50s were used to derive the mean and SEM. RIA of pituitary hormones: LH, FSH, TSH, and Prolactin were determined with commercially available kits from Amersham, and ACTH levels were determined by a RIA kit from ICN. CALCIUM FLUX EXPERIMENT: Pituitary cells were plated on fibronectin (Collaborative Research) coated two-chambered slide wells (Nunc). After four days in monolayer culture cells were rinsed three times with HBSS (Gibco) in 1% BSA and 15 mM HEPES and then incubated for 30 min at 37° C. with 5 μM Indo-1 AM (Molecular Probes, Eugene) in HBSS also containing 1% pluronic F127 (Molecular Probes). The cells were rinsed once and fresh media added for RT incubation. […] C^++ flux was imaged with a Meridian ACAS 570 using stage scanning at 21 second intervals.

rat pituitary cells, sequence (O08725 whole entry, the tested form may be a part): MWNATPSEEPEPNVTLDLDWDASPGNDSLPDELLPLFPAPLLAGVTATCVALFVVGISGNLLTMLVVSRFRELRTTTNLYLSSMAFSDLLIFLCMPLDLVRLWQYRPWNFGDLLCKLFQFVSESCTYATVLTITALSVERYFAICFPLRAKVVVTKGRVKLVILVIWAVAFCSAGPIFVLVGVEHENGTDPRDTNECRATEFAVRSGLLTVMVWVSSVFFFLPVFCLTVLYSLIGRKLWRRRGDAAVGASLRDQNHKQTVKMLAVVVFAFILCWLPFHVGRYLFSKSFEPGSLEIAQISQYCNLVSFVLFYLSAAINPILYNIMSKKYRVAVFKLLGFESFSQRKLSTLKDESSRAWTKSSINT

Question: With `CN(C)C(=O)C(Cc1ccccc1)NC(=O)[C@@H](Cc1ccc2ccccc2c1)NC(=O)[C@@H](Cc1ccc2ccccc2c1)NC(=O)C1CCNCC1` (single isomer, unassigned) [(inip) b b f dam] as the molecule, how does the EC50 read?
Answer: 12 nM

Question: Which EC50 does the source give for `C[C@@H](NC(=O)CCCCN)C(=O)N[C@H](Cc1ccc2ccccc2c1)C(=O)N[C@@H](Cc1ccccc1)C(=O)N[C@@H](CCCCN)C(N)=O` [(Ava) a b F K amide] (H-[Ava][dA][d2Nal]FK-NH2) here?
Answer: > 300 nM

Question: With `C[C@@H](NC(=O)[C@@H](Cc1ccc2ccccc2c1)NC(=O)CCCCN)C(=O)N[C@@H](Cc1ccccc1)C(=O)N[C@@H](CCCCN)C(N)=O` [(Ava) b a F K amide] (H-[Ava][d2Nal][dA]FK-NH2) as the molecule, how does the EC50 read?
Answer: > 300 nM

Question: `NCCCCC(=O)N[C@H](Cc1ccc2ccccc2c1)C(=O)N[C@H](Cc1ccc2ccccc2c1)C(=O)N[C@@H](C(=O)N[C@@H](CCCCN)C(N)=O)c1ccccc1` [(Ava) b b (pG) K amide] (H-[Ava][d2Nal][d2Nal][dPhg]K-NH2) was tested. Which EC50 did it give?
Answer: > 100 nM

Question: With `C[C@H](NC(=O)[C@@H](Cc1ccc2ccccc2c1)NC(=O)[C@@H](Cc1ccc2ccccc2c1)NC(=O)CCCCN)C(=O)N[C@@H](CCCCN)C(N)=O` [(Ava) b b A K amide] (H-[Ava][d2Nal][d2Nal]AK-NH2) as the molecule, how does the EC50 read?
Answer: > 150 nM

Question: With `NCCCC[C@H](NC(=O)[C@H](Cc1ccccc1)NC(=O)[C@@H](Cc1ccc2ccccc2c1)NC(=O)[C@@H](Cc1ccc2ccccc2c1)NC(=O)C1CCNCC1)C(=O)N[C@@H](Cc1ccc(O)c(I)c1)C(N)=O` [(inip) b b F K Y(I) amide] (H-[Inp][d2Nal][d2Nal]FK[Tyr(3-I)]-NH2) as the molecule, how does the EC50 read?
Answer: 0.69 nM

Question: Which EC50 does the source give for `NCCCC[C@H](NC(=O)[C@H](Cc1ccc(O)cc1)NC(=O)[C@@H](Cc1ccc2ccccc2c1)NC(=O)[C@@H](Cc1ccc2ccccc2c1)NC(=O)C1CCNCC1)C(N)=O` [(inip) b b Y K amide] (H-[Inp][d2Nal][d2Nal]YK-NH2) here?
Answer: 0.2 nM

Question: Which EC50 does the source give for `CNC(=O)[C@@H](Cc1ccccc1)NC(=O)[C@@H](Cc1ccc2ccccc2c1)NC(=O)[C@@H](Cc1ccc2ccccc2c1)NC(=O)C1CCNCC1` [(inip) b b f mam] (H-[Inp][d2Nal][d2Nal][dF]-NHMe) here?
Answer: 7 nM

Question: `CN(C)C(=O)[C@H](Cc1ccccc1)NC(=O)[C@@H](Cc1ccc2ccccc2c1)NC(=O)[C@@H](Cc1ccc2ccccc2c1)N(C)C(=O)C1CCNCC1` [(inip) nmb b F dam] (H-[Inp][dNMe2Nal][d2Nal]F-NMe2) was tested. Which EC50 did it give?
Answer: 6 nM

Question: For `CN(C(=O)C1CCNCC1)[C@H](Cc1ccc2ccccc2c1)C(=O)N(C)[C@H](Cc1ccc2ccccc2c1)C(=O)N[C@@H](Cc1ccccc1)C(=O)N[C@@H](CCCCN)C(N)=O` [(inip) nmb nmb F K amide] (H-[Inp][dNMe2Nal][dNMe2Nal]FK-NH2), which EC50 is on record?
Answer: 1.4 nM

Question: `NCCCC[C@H](NC(=O)[C@H](Cc1ccccc1)NC(=O)[C@@H](Cc1ccc2ccccc2c1)NC(=O)[C@@H](Cc1ccc2ccccc2c1)NC(=O)Cc1ccncc1)C(N)=O` [(pac) b b F K amide] ({Acetyl(4-pyridyl)}-[d2Nal][d2Nal]FK-NH2) was tested. Which EC50 did it give?
Answer: 100 nM

Same assay, conditions: read-out: PIT Cell EC50; Table IV, formula III compounds; GH release, 15 min incubation

Question: For `NCCCCC(=O)N[C@H](Cc1ccc2ccccc2c1)C(=O)N[C@@H](Cc1ccccc1)C(=O)N[C@@H](CCCCN)C(N)=O` [(Ava) b F K amide] (H-[Ava][d2Nal]FK-NH2), which EC50 is on record?
Answer: > 300 nM

Question: With `NCCCCC(=O)N[C@H](Cc1ccc2ccccc2c1)C(=O)N[C@H](Cc1ccc2ccccc2c1)C(=O)NCCc1ccccc1` [(Ava) b b fem] (H-[Ava]-[d2Nal]-[d2Nal]-NHPhenethyl) as the molecule, how does the EC50 read?
Answer: > 200 nM

Question: For `NC(=O)[C@H](Cc1ccccc1)NC(=O)C1(NC(=O)[C@@H](Cc2ccc3ccccc3c2)NC(=O)C2CCNCC2)CCCCC1` [(inip) b Abx F amide] (H-[Inp][d2Nal][Ac6c]F-NH2), which EC50 is on record?
Answer: > 100 nM

Question: With `O=C(N[C@H](Cc1ccc2ccccc2c1)C(=O)N[C@H](Cc1ccc2ccccc2c1)C(=O)N[C@@H](Cc1ccc(O)c(I)c1)C(=O)O)C1CCNCC1` [(inip) b b Y(I) acid, (inip)-DβNal-DβNal-(3-I-Tyr)] (H-[Inp][d2Nal][d2Nal][Tyr(3-I)]-OH) as the molecule, how does the EC50 read?
Answer: 0.1 nM

Question: How did the EC50 turn out when `NC1CCN(C(=O)[C@@H](Cc2ccc3ccccc3c2)NC(=O)[C@@H](Cc2ccc3ccccc3c2)NC(=O)C2CCNCC2)CC1` [(inip) b b apc] was run?
Answer: 39 nM

Question: With `O=C(N[C@H](Cc1ccc2ccccc2c1)C(=O)N[C@H](Cc1ccc2ccccc2c1)C(=O)NCCc1ccccc1)C1CCNCC1` [(inip) b b fem, (inip)-DβNal-DβNal-(N-2-phenylethyl) amide] (H-[Inp]-[d2Nal]-[d2Nal]-NHPhenethyl) as the molecule, how does the EC50 read?
Answer: 2.04 nM

Question: Which EC50 does the source give for `NCCC[C@@H](NC(=O)[C@@H](Cc1ccc2ccccc2c1)NC(=O)[C@@H](Cc1ccc2ccccc2c1)NC(=O)C1CCNCC1)C(N)=O` [(inip) b b o amide] (H-[Inp][d2Nal][d2Nal][dOrn]-NH2) here?
Answer: 10 nM

Question: With `NCCCCCNC(=O)[C@@H](Cc1ccc2ccccc2c1)NC(=O)[C@@H](Cc1ccc2ccccc2c1)NC(=O)C1CCNCC1` [(inip) b b pam] as the molecule, how does the EC50 read?
Answer: 43 nM

Question: Which EC50 does the source give for `NC(=O)[C@H](Cc1ccccc1)NC(=O)[C@@H](Cc1ccccc1)NC(=O)[C@@H](Cc1ccc2ccccc2c1)NC(=O)C1CCNCC1` [(inip) b f F amide] (H-[Inp][d2Nal][dF]F-NH2) here?
Answer: 79 nM

Question: How did the EC50 turn out when `CCCC[C@@H](NC(=O)[C@@H](Cc1ccc2ccccc2c1)NC(=O)C1CCNCC1)C(=O)N[C@@H](Cc1ccccc1)C(N)=O` [(inip) b nl F amide] (H-[Inp][d2Nal][dNle]F-NH2) was run?
Answer: 72 nM

Question: For `NC(=O)[C@H](Cc1ccccc1)NC(=O)[C@@H](Cc1ccc2ccccc2c1)NC(=O)[C@@H](CCc1ccccc1)NC(=O)C1CCNCC1` [(inip) hf b F amide] (H-[Inp][d(hPhe)][d2Nal]F-NH2), which EC50 is on record?
Answer: 27 nM

Question: How did the EC50 turn out when `NC(=O)[C@H](Cc1ccccc1)NC(=O)[C@@H](CCc1ccccc1)NC(=O)[C@@H](CCc1ccccc1)NC(=O)C1CCNCC1` [(inip) hf hf F amide] (H-[Inp][d(hPhe)][d(hPhe)]F-NH2) was run?
Answer: > 1000 nM

Question: For `CCCC[C@@H](NC(=O)C1CCNCC1)C(=O)N[C@H](Cc1ccc2ccccc2c1)C(=O)N[C@@H](Cc1ccccc1)C(N)=O` [(inip) nl b F amide] (H-[Inp][dNle][d2Nal]F-NH2), which EC50 is on record?
Answer: 101 nM

Same assay, conditions: read-out: PIT Cell EC50; Table V, formula II compounds; GH release, 15 min incubation

Question: `NCCCCC(=O)N[C@H](Cc1ccc2ccccc2c1)C(=O)N[C@@H](CO)Cc1ccc2ccccc2c1` [(Ava) b bol] was tested. Which EC50 did it give?
Answer: 190 nM

Question: `O=C(N[C@H](Cc1ccc2ccccc2c1)C(=O)N[C@H](CO)Cc1ccc2ccccc2c1)C1CCNCC1` [(inip) b Bol] was tested. Which EC50 did it give?
Answer: 100 nM

Question: How did the EC50 turn out when `O=C(N[C@H](Cc1ccc2ccccc2c1)C(=O)N[C@H](Cc1ccc2ccccc2c1)C(=O)O)C1CCNCC1` [(inip) b b acid] (H-[Inp]-[d2Nal]-[d2Nal]-OH) was run?
Answer: 82 nM

Question: `NC(=O)[C@@H](Cc1ccc2ccccc2c1)NC(=O)[C@@H](Cc1ccc2ccccc2c1)NC(=O)C1CCNCC1` [(inip) b b amide] (H-[Inp]-[d2Nal]-[d2Nal]-NH2) was tested. Which EC50 did it give?
Answer: 17.6 nM

Question: Which EC50 does the source give for `CC(=O)NC[C@@H](Cc1ccc2ccccc2c1)N(C)C(=O)[C@@H](Cc1ccc2ccccc2c1)NC(=O)C1CCNCC1` [(inip) b mbm Ac] here?
Answer: 90 nM

Question: For `CN(C(=O)[C@@H](Cc1ccc2ccccc2c1)NC(=O)C1CCNCC1)[C@@H](CN=[N+]=[N-])Cc1ccc2ccccc2c1` [(inip) b miz], which EC50 is on record?
Answer: 12 nM

Same assay, conditions: read-out: PIT Cell EC50; Table VI, retroinverso compounds of formula V; GH release, 15 min incubation

Question: `NCCCCC(=O)N[C@H](Cc1ccccc1)C(=O)N[C@@H](Cc1ccc2ccccc2c1)C(=O)N[C@@H](Cc1ccc2ccccc2c1)C(=O)N[C@@H](CCCCN)C(N)=O` [(Ava) f B B K amide, (5-Aminovaleryl)-DPhe-βNal-βNal-Lys-amide] (H-[Ava][dF][2Nal][2Nal]K-NH2) was tested. Which EC50 did it give?
Answer: 36 nM

Question: For `O=C(N[C@@H](Cc1ccc2ccccc2c1)C(=O)N[C@@H](Cc1ccc2ccccc2c1)C(=O)NC1CCNCC1)C1CCNCC1` [(inip) B B api], which EC50 is on record?
Answer: 96 nM

Same assay, conditions: read-out: mean EC50; mean ± SE of independent EC50s

Question: How did the EC50 turn out when `NCCCNC(=O)[C@H](Cc1ccc2ccccc2c1)NC(=O)[C@H](Cc1ccc2ccccc2c1)NC(=O)[C@@H](Cc1ccc2ccccc2c1)NC(=O)CCCN` [(Ab) b B B ram] was run?
Answer: 2 nM
